From patent US20220143060A1, “METHOD FOR TREATING INFECTIOUS DISEASES BY TARGETING NK CELL IMMUNE CHECKPOINT” (priority 2019, published 2022)

Columns and labels:
HCV (J399EM) = assay: HCV copy number in serum/peripheral blood and liver tissue by qPCR in HCV-infected C/O-Tg mice; type: in vivo; conditions: two weeks of treatment, vs control (FIG. 7B, 8C)
Description: This mouse model of HCV infection was first reproduced and confirmed. HCV (J399EM, 1 mL, TCID50=2×10^7) was used for tail vein infusion in C/O-Tg mice and wild-type littermate control mice. […] The above results are consistent with the observation in patients infected with HCV (Fahey S, Dempsey E, Long A. The role of chemokines in acute and chronic hepatitis C infection. Cellular and Molecular Immunology 11, 25 (2014)).
Since CD8+ T cells are generally thought to play an important role in viral infection and clearance, the expression profile of CD8+T immune checkpoint molecules during HCV infection was first tested. […] Based on this, it was tested whether targeting T cell immune checkpoint molecules can inhibit the chronic infection process.
In order to further investigate the therapeutic effect of NKG2A blockade on chronic HCV infection, mice were administered with NKG2A blocking antibodies two weeks after HCV infection. Up-regulation of NKG2A expression has been observed at this stage (FIG. 3C) and administration was lasted for two weeks (FIG. 6A).

liver NK cells = assay: in vitro NK function assay: liver NK cells of treated mice co-cultured with target cells Yac-1, flow cytometry (CD107a, granzyme B, IFN-γ); type: in vivo, C/O-Tg mice; conditions: two weeks of treatment with Qa-1 siRNA, vs control siRNA (FIG. 8D)
Qa-1 = Qa-1 mRNA expression of different cell components in liver tissue after siRNA treatment; type: in vivo, C/O-Tg mice; conditions: tail vein injection, two weeks of treatment, vs control siRNA (FIG. 8B)
Description: On the other hand, it was investigated whether suppression of the expression of immune checkpoint molecules can promote the elimination of HCV.

cholesterol-conjugated siRNA against Qa-1: cholesterol-conjugated siRNA against Qa-1, sequence GAAGAGGAGGAGACACAUA, synthesized by GenePharma (cholesterol-conjugated, position not given here)
HCV replication (copy numbers of virus in serum and liver tissues) (HCV (J399EM)): inhibited HCV replication | depletion process of NK cells (CD107a and IFN-γ) (liver NK cells): reversed | Qa-1 expression (mRNA) in liver cell components (Qa-1): selectively down-regulated Qa-1 in hepatocytes
